Measured values taken from patent US20090117074A1, “Sulfonylpyrroles as Histone Deacetylase Inhibitors” (NYCOMED GmbH, priority 2005, published 2009).
Counter-ions that a name gives are not always drawn.

Assays:
[1] = test system: histone H3 hyperacetylation in HeLa cells; test: Cellular histone H3 hyperacetylation assay; format: cell-based; conditions: Homo sapiens, 24 h incubation
Description: To assess the cellular efficacy of a histone deacetylase inhibitor in vitro, an assay is set up in black clear-bottom 96-well plates and optimized for use on the Cellomics “ArrayScan II” platform for a quantitative calculation of histone acetylation. The protocol uses a polyclonal rabbit antibody, specifically binding to acetylated lysine 23 or, alternatively, acetylated lysine 9+14 of human histone H3 on fixed cells with an Alexa Fluor 488 labeled goat anti rabbit-IgG used for counterstaining (modified from Braunger et al. AACR annual conference 2003, Abstract 4556).
5×10^3 HeLa cervical carcinoma cells/well (ATCC CCL-2) in 200 μl Dulbecco's modified Eagle's medium (DMEM) containing 10% fetal calf serum are seeded at day 1 in Packard view plates and incubated for 24 h under standard cell culture conditions. On day 2, 1 μl test compound (200× final concentration) is added and incubation continued for further 24 h. On day 3, the culture medium is discarded and attached cells fixed for 15 min at room temperature by addition of 100 μl fixation buffer (3.7% v:v formaldehyde in phosphate buffered saline/PBS). After discarding the fixation buffer and one wash with blocking solution (1% BSA, 0.3% Tween 20 in PBS), cells are permeabilized at room temperature by addition of 100 μl/well permeabilization buffer (30.8 mM NaCl, 0.54 mM Na2HPO4, 0.31 mM KH2PO4, 0.1% v:v Triton X-100) for 15 min at room temperature. After discarding the permeabilization buffer and washing twice with 100 μl/well blocking solution at room temperature, the 1st antibody (anti-K23 histone H3 antibody, Cell Signaling No. 9674 or, alternatively, anti-K9+14 histone H3 antibody, Calbiochem No. 382158) in blocking solution (50 μl/well) is added. After incubation for 1 h at room temperature, the wells are washed twice at room temperature with 100 μl/well blocking solution before addition of the 2nd antibody (goat-anti-rabbit Alexa Fluor 488; MoBiTec No. A-11008) in blocking solution (50 μl/well). After further incubation for 1 h at room temperature, wells are washed twice with 100 μl/well blocking solution at room temperature. Finally, 100 μl/well PBS are added and image analysis performed on the Cellomics “ArrayScan II” platform. For EC50 determination, the percentage of positive cells showing nuclear fluorescence is determined and EC50 calculation done from concentration-effect curves by means of non-linear regression. For calibration, a positive (reference HDAC inhibitors like SAHA or LBH589) and negative control is included.

A549 NSCLC cell line = test: Cellular cytotoxicity assay (Alamar Blue), A549; format: cell-based; conditions: Homo sapiens, 48 or 72 hours, read-out: IC50, anti-proliferative/cytotoxic activity
Method: (§1) The anti-proliferative activity of the histone deacetylase inhibitory compounds as described herein, Is evaluated with the HeLa cervical carcinoma cell line (ATCC CCL2) and A549 non-small cell lung cancer cell line (ATCC CCL185) using the Alamar Blue (Resazurin) cell viability assay (O'Brien et al. Eur J Biochem 267, 5421-5426, 2000). Resazurin is reduced to the fluorescent resorufin by cellular dehydrogenase activity, correlating with viable, proliferating cells. Test compounds are dissolved as 20 mM solutions in dimethylsulfoxide (DMSO) and subsequently diluted in semi-logarithmic steps. HeLa or A549 cells are seeded into 96 well flat bottom plates at a density of 1000 and 2000 cells per well, respectively, in a volume of 200 μl per well. 24 hours after seeding 1 μl each of the compound dilutions are added into each well of the 96 Well plate. Each compound dilution is tested as quadruplicates.
(§2) Wells containing untreated control cells are filled with 200 μl DMEM medium containing 0.5% v:v DMSO. The cells are then incubated with the substances for 48 or 72 hours at 37° C. in a humidified atmosphere containing 5% carbon dioxide. To determine the viability of the cells, 20 μl of an Resazurin solution (Sigma; 90 mg/I) were added. After 4 hours incubation at 37° C. the fluorescence is measured at an extinction of 544 nm and an emission of 590 nm. For the calculation of the cell viability the emission value from untreated cells is set as 100% viability and the emission rates of treated cells are set in relation to the values of untreated cells. Viabilities are expressed as % values. The corresponding IC50 values of the compounds for cytotoxic activity are determined from the concentration-effect curves by means of non-linear regression.

[2] = test system: HeLa cervical carcinoma cell line; test: Cellular cytotoxicity assay (Alamar Blue), HeLa; format: cell-based; conditions: Homo sapiens, 48 or 72 hours, read-out: IC50, anti-proliferative/cytotoxic activity
Method: as §1, §2

A549 cells = test: Apoptosis induction (cell death detection ELISA); format: cell-based, human; conditions: 10 μM, 48 hours
Method: The induction of apoptosis is measured by using the cell death detection ELISA (Art. No. 1774425, Roche Biochemicals, Mannheim, Germany). A549 NSCLC cells are seeded into 96 well flat bottom plates at a density of 3×10 E3 cells/well in a total volume of 200 μl/well. 24 hours after seeding, 1 μl each of the compound dilutions in DMEM are added in a total volume of 200 μl into each well (final volume 200 μl/well). Each compound dilution is tested at least as triplicates. Wells containing untreated control cells are filled with 200 μl DMEM containing 0.5 vol % DMSO. The cells are incubated with test compound for 48 hours at 37° C. in a humidified atmosphere containing 5% carbon dioxide. As a positive control for the induction of apoptosis, cells are treated with 50 μM Cisplatin (Gry Pharmaceuticals, Kirchzarten, Germany). Medium is then removed and the cells lysed in 200 μl lysis buffer. After centrifugation as described by the manufacturer, 10 μl of cell lysate is processed as described in the protocol. The degree of apoptosis is calculated as follows: The absorbance at 405 nm obtained with lysates from cells treated with 50 μM cisplatin is set as 100 cpu (cisplatin units), while an absorbance at 405 nm of 0.0 is set as 0.0 cpu. The degree of apoptosis is expressed as cpu in relation to the value of 100 cpu reached with the lysates obtained from cells treated with 50 μM cisplatin.

| Structure (SMILES) | melting point | EC50 [1] | IC50 (A549 NSCLC cell line) | IC50 [2] | Apoptosis induction (cisplatin units; 50 μM cisplatin = 100 cpu) (A549 cells) |
| --- | --- | --- | --- | --- | --- |
| Cc1nc(S(=O)(=O)n2ccc(/C=C/C(=O)NO)c2)cn1C [Example 12, (E)-3-[1-(1,2-Dimethyl-1H-imidazole-4-sulfonyl)-1H-pyrrol-3-yl]-N-hydroxy-acrylamide] | 190 to 194 °C | – | – | – | – |
| O=C(/C=C/c1ccn(S(=O)(=O)c2ccc(N3CCOCC3)nc2)c1)NO [Example 4, (E)-N-Hydroxy-3-[1-(6-morpholin-4-yl-pyridine-3-sulfonyl)-1H-pyrrol-3-yl]-acrylamide] | – | 190 to 10000 nM | 313 to 6200 nM | 230 to 4200 nM | – |
| O=C(/C=C/c1ccn(S(=O)(=O)c2cccnc2)c1)NO [Example 3, (E)-N-Hydroxy-3-[1-(pyridine-3-sulfonyl)-1H-pyrrol-3-yl]-acrylamide] | 161.4 to 176.4 °C | – | 313 to 6200 nM | 230 to 4200 nM | – |
| Nc1ccccc1NC(=O)/C=C/c1ccn(S(=O)(=O)c2ccc3ccccc3c2)c1 [Example 2, (E)-N-(2-Amino-phenyl)-3-[1-(naphthalene-2-sulfonyl)-1H-pyrrol-3-yl]-acrylamide] | – | 190 to 10000 nM | 313 to 6200 nM | 230 to 4200 nM | 46 cpu |
| Cc1nc(C)c(S(=O)(=O)n2ccc(C=CC(=O)NO)c2)s1 (as salt: HCl) [Example 11, (E)-3-[1-(2, Dimethyl-thiazole-5-sulfonyl)-1H-pyrrol-3-yl]-N-hydroxy-acrylamide] | 181 to 182 °C | – | – | – | – |
| O=C(/C=C/c1ccn(S(=O)(=O)c2ccc3ncsc3c2)c1)NO [Example 10, (E)-3-[1-(Benzothiazole-6-sulfonyl)-1H-pyrrol-3-yl]-N-hydroxy-acrylamide] | – | 190 to 10000 nM | 313 to 6200 nM | 230 to 4200 nM | – |
| Cc1nc(C)c(S(=O)(=O)n2ccc(C=CC(=O)NO)c2)s1 [Example 11, (E)-3-[1-(2, Dimethyl-thiazole-5-sulfonyl)-1H-pyrrol-3-yl]-N-hydroxy-acrylamide] | – | – | 313 to 6200 nM | 230 to 4200 nM | – |
| O=C(/C=C/c1ccn(S(=O)(=O)c2cc3ccccc3s2)c1)NO [Example 9, (E)-3-[1-(Benzo[b]thiophene-2-sulfonyl)-1H-pyrrol-3-yl]-N-hydroxy-acrylamide] | – | 190 to 10000 nM | 313 to 6200 nM | 230 to 4200 nM | – |
| O=C(/C=C/c1ccn(S(=O)(=O)c2ccc3ccccc3c2)c1)NO [Example 1, (E)-N-Hydroxy-3-[1-(naphthalene-2-sulfonyl)-1H-pyrrol-3-yl]-acrylamide] | – | 190 to 10000 nM | 313 to 6200 nM | 230 to 4200 nM | 310 cpu |
| Cn1cc(S(=O)(=O)n2ccc(/C=C/C(=O)NO)c2)cn1 [Example 8, (E)-N-Hydroxy-3-[1-(1-methyl-1H-pyrazole-4-sulfonyl)-1H-pyrrol-3-yl]-acrylamide] | – | – | 313 to 6200 nM | 230 to 4200 nM | – |
